From paper PMC4626104, “Inhibition on Proteasome β1 Subunit Might Contribute to the Anti-Cancer Effects of Fangchinoline in Human Prostate Cancer Cells” (PLoS ONE, 2015)
pKd: −log10 of the molar value.

How the values were obtained:
[1] = target: T1, recombinant human proteasome β1 subunit (Homo sapiens, UniProt P28072); experiment: Surface plasmon resonance (Biacore) binding assay
T1 construct: His-Tag; made in house; host or cells: Escherichia coli
T1 sequence (P28072 1-239): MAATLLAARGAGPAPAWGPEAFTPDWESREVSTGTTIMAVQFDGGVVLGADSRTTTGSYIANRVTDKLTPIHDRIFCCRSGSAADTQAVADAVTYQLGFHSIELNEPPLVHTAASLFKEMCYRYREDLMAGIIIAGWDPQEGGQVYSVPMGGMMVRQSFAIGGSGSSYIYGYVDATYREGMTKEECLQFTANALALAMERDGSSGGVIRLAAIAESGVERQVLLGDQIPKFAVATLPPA
Procedure: The recombinant human proteasome β1 subunit, product of PSMB6 gene, was expressed as His-Tag proteins using Escherichia coli, and then purified by affinity chromatography as reported in our previous study. The binding affinities of fangchinoline or tetrandrine to recombinant proteasome catalytic β1 subunit, were assayed in vitro using an Biacore 3000 instrument (Biacore AB, Rapsgatan 7, S-754 50 Uppsala, Sweden) as reported before. Briefly, recombinant proteasome β1 subunit protein was immobilized on a CM5 sensor chip as ligand in 11624.5 RU with N-ethyl-N’-(3-dimethylaminopropyl) carbodiimide and N-hydroxysuccinimide according to the standard primary amine-coupling procedures, and HBS-EP (10 mM HEPES, 150 mM NaCl, 3 mM EDTA, 0.005% (v/v) surfactant P20, pH 7.4) was used as the running buffer. Equilibration of the baseline was performed by a continuous flow of HBS-EP through the chip surface for 1 to 2 h. Biacore data were collected at 25°C with HBS-EP as the running buffer at a constant flow of 20 μL/min. Fangchinoline or tetradrine was serially diluted into the running buffer to 0, 2.4, 3.43, 4.90, 7.0, 10 and 20 μM. The samples were injected into the channels at a flow rate of 20 μL/min, followed by washing with the running buffer. The binding responses were recorded continuously in response units (RU) at a frequency of 1Hz as sensorgrams and presented as a function of time. The association (k a) and dissociation (k d) rate constants, the equilibrium dissociation constant ( KD=kd/ka ) were determined by analysis of the sensorgram-curves obtained at different concentrations of the compound by use of BIA evaluation software version 3.1 (Biacore) and the 1:1 Langmuir binding fitting model.

[2] = target: T1, recombinant human proteasome β1 subunit; experiment: Enzyme activity of recombinant proteasome catalytic β1 subunit (Z-LLE-AMC); assay type: biochemical; settings: 50 μM Z-LLE-AMC, 2 h incubation
Procedure: Briefly, catalytic activity of the recombinant human proteasome β1 subunit was assayed by adding recombinant β1 subunit protein (30 μg) to 100 μL of proteasome activity assay buffer (10 mM Tris-HCL, pH 7.8, 5 mM adenosine triphosphate, 0.5 mM dithiothreitol and 5 mM MgCL2•6H2O) containing 50 μM Z-LLE-AMC in the presence of fangchinoline or tetrandrine at different concentrations or not. The hydrolase activity of the proteasome catalytic β1 subunit could release the fluorogenic AMC component from substrate Z-LLE-AMC and the AMC release was measured after 2 h incubation using a Microplate Reader Bio-Rad 550 with excitation and emission wavelengths of 360 and 465 nm, respectively.

## COc1ccc2cc1Oc1ccc(cc1)C[C@H]1c3cc(c(OC)cc3CCN1C)Oc1c(OC)c(OC)cc3c1[C@H](C2)N(C)CC3 [tetrandrine, reference compound]
[1]; Biacore, 25°C, 1:1 Langmuir model
  Dissociation (k d): 0.0162 S^-1
[1]; Biacore, 25°C, 1:1 Langmuir model, read-out: Equilibrium dissociation (K D)
  pKd: 5.25
[1]; pH 7.4, read-out: Association (k a)
  kon: 2890 M⁻¹ s⁻¹
[2]
  Inhibition of enzyme activity of recombinant proteasome β1 subunit: directly inhibit
